Assay [1] concerns the target cortisol synthase (CYP11B1) (Macaca fascicularis, UniProt A0A2K5ULY1). The assay is described as follows: Inhibition of cortisol synthesis (cynomolgus adrenal mitochondria, cortisol by mass spectrometry). As to conditions: cynomolgus adrenal gland mitochondria, 11-deoxycortisol as substrate, cortisol measured as product; read-out: CYP11B1 Inhibition IC50. It is filed as biochemical, cynomolgus monkey. How it is done:
The aldosterone synthase and cortisol synthase inhibition assays employ cynomolgus adrenal gland mitochondria as the source of aldosterone synthase (CYP11B2) and cortisol synthase (CYP11B1). Mitochondria are prepared from frozen cynomolgus monkey adrenal glands according to Method A described in by J. D. McGarry et al. (Biochem. J., 1983, 214, 21-28), with a final resuspension in the AT buffer described in R. Yamaguchi et al. (Cell Death and Differentiation, 2007, 14, 616-624), frozen as aliquots in liquid nitrogen and stored at −80° C. until use. Activity of CYP11B2 and CYP11B1 in these preparations is defined as the amount of enzyme that generates 1 pmol of product in one hour under the conditions described. Dose dependent inhibition is quantified by the inclusion of compound at various concentrations. Maximum activity (100%) is defined by reactions containing NADPH, but without compound. Activities at each concentration are expressed as a percentage of the maximum activity (y-axis) and plotted against concentration of compound (x-axis) and the concentration corresponding to 50% activity (IC50) determined using the XLFit curve-fitting program using a 4-parameter logistic model. Assays are performed as for aldosterone synthase except for the use of 150 units of CYP11B1, 11-deoxycortisol as substrate and cortisol measured as product.

For assay [2], the target named is T1, aldosterone synthase (CYP11B2) (Macaca fascicularis, UniProt A0A2K5UPL9).
T1 construct: cynomolgus adrenal gland mitochondria as the source of aldosterone synthase (CYP11B2); from tissue; host or cells: cynomolgus monkey adrenal gland mitochondria
T1 sequence (A0A2K5UPL9 1-503): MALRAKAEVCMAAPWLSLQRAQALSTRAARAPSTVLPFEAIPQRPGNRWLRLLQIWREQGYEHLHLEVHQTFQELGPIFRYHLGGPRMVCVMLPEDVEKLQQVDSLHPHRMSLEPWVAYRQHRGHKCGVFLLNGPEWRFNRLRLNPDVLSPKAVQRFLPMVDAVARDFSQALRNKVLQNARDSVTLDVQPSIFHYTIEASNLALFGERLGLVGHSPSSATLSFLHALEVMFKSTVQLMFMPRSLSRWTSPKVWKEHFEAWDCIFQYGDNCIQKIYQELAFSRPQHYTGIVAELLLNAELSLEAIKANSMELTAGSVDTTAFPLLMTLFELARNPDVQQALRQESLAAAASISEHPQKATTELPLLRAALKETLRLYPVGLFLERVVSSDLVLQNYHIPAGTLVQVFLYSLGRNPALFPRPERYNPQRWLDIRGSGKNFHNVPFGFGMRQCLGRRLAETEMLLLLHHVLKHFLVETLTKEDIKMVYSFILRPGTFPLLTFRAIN
Nature of the assay: Inhibition of aldosterone synthase (cynomolgus adrenal mitochondria, aldosterone by mass spectrometry). It is filed as biochemical, cynomolgus monkey. As to conditions: cynomolgus adrenal gland mitochondria, 2 μM corticosterone substrate, 90 minutes at 37° C. The protocol: The aldosterone synthase and cortisol synthase inhibition assays employ cynomolgus adrenal gland mitochondria as the source of aldosterone synthase (CYP11B2) and cortisol synthase (CYP11B1). Mitochondria are prepared from frozen cynomolgus monkey adrenal glands according to Method A described in by J. D. McGarry et al. (Biochem. J., 1983, 214, 21-28), with a final resuspension in the AT buffer described in R. Yamaguchi et al. (Cell Death and Differentiation, 2007, 14, 616-624), frozen as aliquots in liquid nitrogen and stored at −80° C. until use. Activity of CYP11B2 and CYP11B1 in these preparations is defined as the amount of enzyme that generates 1 pmol of product in one hour under the conditions described.
Assays are performed in 96-well format in a final volume of 60 µL/well, containing 100 mM potassium phosphate, pH 7.4, 1% (v/v) DMSO, and additionally, 2 μM of corticosterone and 50 units of CYP11B2 activity. Reactions are started by the addition of NADPH to 1 mM and allowed to proceed for 90 minutes at 37° C. Reactions are terminated by the addition of 60 μL of MeCN containing an internal standard for mass spectrometry. One hundred microliters are then transferred to a glass filter plate and centrifuged at 570×g for 5 minutes and the filtrate is collected. Reaction product aldosterone is quantified by mass spectrometry. To determine the assay blank value (0% activity), NADPH is omitted from some reactions.
Dose dependent inhibition is quantified by the inclusion of compound at various concentrations. Maximum activity (100%) is defined by reactions containing NADPH, but without compound. Activities at each concentration are expressed as a percentage of the maximum activity (y-axis) and plotted against concentration of compound (x-axis) and the concentration corresponding to 50% activity (IC50) determined using the XLFit curve-fitting program using a 4-parameter logistic model.

In general, IC50 refers to the point on the concentration scale where inhibition reaches its midpoint. Turning to `CS(=O)(=O)CCCOc1ccc(Cc2onc3c2C(=O)CC(CC2CC2)C3)cc1` (centres unmarked) [Cpd 24, 6-Cyclopropylmethyl-3-[4-(3-methanesulfonyl-propoxy)-benzyl]-6,7-dihydro-5H-benzo[c]isoxazol-4-one], the IC50 is 1300 nM in assay [1] and 17 nM in assay [2].
For `CC1(C)CC(=O)c2c(noc2Cc2ccc(I)cc2)C1` [Cpd 25, 3-(4-Iodo-benzyl)-6,6-dimethyl-6,7-dihydro-5H-benzo[c]isoxazol-4-one] the same measures were 2800 nM and 29 nM.
For `O=C1CC(Cc2ccccc2)Cc2noc(Cc3ccccc3)c21` (centres unmarked) [Cpd 26, 3,6-Dibenzyl-6,7-dihydro-5H-benzo[c]isoxazol-4-one] the same measures were 2300 nM and 49 nM.
In the same order, the values of `CC1(C)CC(=O)c2c(noc2Cc2ccc(OCCCS(C)(=O)=O)cc2)C1` [Cpd 27, 3-[4-(3-Methanesulfonyl-propoxy)-benzyl]-6,6-dimethyl-6,7-dihydro-5H-benzo[c]isoxazol-4-one] are 3400 nM and 59 nM.
Regarding `N#Cc1ccc(Cc2onc3c2C(=O)CC(Cc2ccccc2)C3)cc1` (centres unmarked) [Cpd 28, 4-(6-Benzyl-4-oxo-4,5,6,7-tetrahydro-benzo[c]isoxazol-3-ylmethyl)-benzonitrile], the IC50 in assay [1] worked out at 4900 nM; in assay [2], 65 nM.
In the same order, the values of `CC1(C)CC(=O)c2c(noc2Cc2ccc(OCCS(C)(=O)=O)cc2)C1` [Cpd 29, 3-[4-(2-Methanesulfonyl-ethoxy)-benzyl]-6,6-dimethyl-6,7-dihydro-5H-benzo[c]isoxazol-4-one] are 7400 nM and 73 nM.
With `N#Cc1ccc(Cc2onc3c2C(=O)CC(CC2CC2)C3)cc1` (centres unmarked) [Cpd 30, 4-(6-Cyclopropylmethyl-4-oxo-4,5,6,7-tetrahydro-benzo[c]isoxazol-3-ylmethyl)-benzonitrile], the figures for the IC50 in assay [1] and in assay [2] were 14000 nM and 74 nM, respectively.
In the same order, the values of `CC1(C)CC(=O)c2c(noc2Cc2cccc(F)c2)C1` [Cpd 31, 3-(3-Fluoro-benzyl)-6,6-dimethyl-6,7-dihydro-5H-benzo[c]isoxazol-4-one] are 7400 nM and 84 nM.
In the same order, the values of `CC1(C)CC(=O)c2c(noc2Cc2ccc(Br)cc2)C1` [Cpd 33, 3-(4-Bromo-benzyl)-6,6-dimethyl-6,7-dihydro-5H-benzo[c]isoxazol-4-one] are 4100 nM and 92 nM.
In the same order, the values of `COc1ccc(Cc2onc3c2C(=O)CC(C)(C)C3)cc1C#N` [Cpd 34, 5-(6,6-Dimethyl-4-oxo-4,5,6,7-tetrahydro-benzo[c]isoxazol-3-ylmethyl)-2-methoxy-benzonitrile] are 25000 nM and 120 nM.
As to `CC1(C)CC(=O)c2c(noc2Cc2ccc3c(c2)NC(=O)CO3)C1` [Cpd 35, 6-(6,6-Dimethyl-4-oxo-4,5,6,7-tetrahydro-benzo[c]isoxazol-3-ylmethyl)-4H-benzo[1,4]oxazin-3-one], the IC50 in assay [1] stood at 5200 nM; in assay [2] it was 160 nM.
In the same order, the values of `CC1CC(=O)c2c(noc2Cc2ccc(C#N)cc2)C1` (centres unmarked) [Cpd 36, 4-(6-Methyl-4-oxo-4,5,6,7-tetrahydro-benzo[c]isoxazol-3-ylmethyl)-benzonitrile] are 7600 nM and 200 nM.
Consider `CC1(C)CC(=O)c2c(noc2Cc2ccc(C#N)c(F)c2)C1` [Cpd 37, 4-(6,6-Dimethyl-4-oxo-4,5,6,7-tetra hydro-benzo[c]isoxazol-3-ylmethyl)-2-fluoro-benzonitrile], for which the values for the IC50 in assay [1] and in assay [2] were 11000 nM and 74 nM, respectively.
For `N#Cc1ccc(Cc2onc3c2C(=O)CC2(CCC2)C3)cc1` [Cpd 38, 4-(-6,6-spiro-cyclobutyl-4-oxo-4,5,6,7-tetrahydro-benzo[c]isoxazol-3-ylmethyl)-benzonitrile] the same measures were 1000 nM and 55 nM.
For `CC1(C)CC(=O)c2c(noc2Cc2ccc(C(=O)O)cc2)C1` [Cpd 40, 4-(6,6-Dimethyl-4-oxo-4,5,6,7-tetrahydro-benzo[c]isoxazol-3-ylmethyl)-benzoic acid] the same measures were above 100000 nM and above 1000 nM.
For `CC1CC(=O)c2c(noc2Cc2ccc(C(=O)O)cc2)C1` (centres unmarked) [Cpd 41, 4-(6-Methyl-4-oxo-4,5,6,7-tetrahydro-benzo[c]isoxazol-3-ylmethyl)-benzoic acid] the same measures were 20000 nM and 660 nM.
Take `O=C(O)c1ccc(Cc2onc3c2C(=O)CC(Cc2ccccc2)C3)cc1` (centres unmarked) [Cpd 42, 4-(6-Benzyl-4-oxo-4,5,6,7-tetrahydro-benzo[c]isoxazol-3-ylmethyl)-benzoic acid]: the 50% inhibitory concentration (IC50) was above 100000 nM in assay [1] and 180 nM in assay [2].
In the same order, the values of `O=C(O)c1ccc(Cc2onc3c2C(=O)CC(CC2CC2)C3)cc1` (centres unmarked) [Cpd 45, 4-(6-Cyclopropylmethyl-4-oxo-4,5,6,7-tetrahydro-benzo[c]isoxazol-3-ylmethyl)-benzoic acid] are 64000 nM and 420 nM.
As for `CC1(C)CC(=O)c2c(noc2Cc2ccc(C(=O)N3CC[C@@H](O)C3)cc2)C1` [Cpd 46, 3-[4-((R)-3-Hydroxy-pyrrolidine-1-carbonyl)-benzyl]-6,6-dimethyl-6,7-dihydro-5H-benzo[c]isoxazol-4-one], the IC50 in assay [1] worked out at 5800 nM; in assay [2], 130 nM.
For `CC(C)C1CC(=O)c2c(noc2Cc2ccc(OCCCS(C)(=O)=O)cc2)C1` (centres unmarked) [Cpd 47, 6-Isopropyl-3-[4-(3-methanesulfonyl-propoxy)-benzyl]-6,7-dihydro-5H-benzo[c]isoxazol-4-one] the same measures were 130 nM and 20 nM.
For `CC1CC(=O)c2c(noc2Cc2ccc(OCCCS(C)(=O)=O)cc2)C1` (centres unmarked) [Cpd 48, 3-[4-(3-Methanesulfonyl-propoxy)-benzyl]-6-methyl-6,7-dihydro-5H-benzo[c]isoxazol-4-one] the same measures were 670 nM and 46 nM.
In the same order, the values of `CS(=O)(=O)CCCOc1ccc(Cc2onc3c2C(=O)CC(Cc2ccccc2)C3)cc1` (centres unmarked) [Cpd 49, 6-Benzyl-3-[4-(3-methanesulfonyl-propoxy)-benzyl]-6,7-dihydro-5H-benzo[c]isoxazol-4-one] are 1100 nM and 150 nM.
`CS(=O)(=O)CCCOc1ccc(Cc2onc3c2C(=O)CC2(CCC2)C3)cc1` [Cpd 50, 3-[4-(3-Methanesulfonyl-propoxy)-benzyl]-6-6-spirocyclebutyl-6,7-dihydro-5H-benzo [c]isoxazol-4-one]: the results for the IC50 in assay [1] and in assay [2] were 580 nM and 72 nM, respectively.
In the same order, the values of `NC(=O)c1ccc(Cc2onc3c2C(=O)CC(CC2CC2)C3)cc1` (centres unmarked) [Cpd 51, 4-(6-Cyclopropylmethyl-4-oxo-4,5,6,7-tetrahydro-benzo[c]isoxazol-3-ylmethyl)-benzamide] are 3700 nM and 21 nM.
For `CC1(C)CC(=O)c2c(noc2Cc2ccc(C(=O)N3CCCC3)cc2)C1` [Cpd 52, 6,6-Dimethyl-3-[4-(pyrrolidine-1-carbonyl)-benzyl]-6,7-dihydro-5H-benzo[c]isoxazol-4-one] the same measures were 14000 nM and 32 nM.

For the origin of these results see patent US10131642B1, “Aldosterone synthase inhibitors” (Boehringer Ingelheim International GmbH, priority 2015, dated 2018).
